For orientation: inhibition means how much of the control response was suppressed.

This passage reports inhibition results from ChEMBL document CHEMBL4418259, “Flavan-3-ol containing foodstuffs” (2012).

This assay addresses T1, Taste receptor type 2 member 39 (Homo sapiens) (UniProt P59534).
T1 sequence (whole entry): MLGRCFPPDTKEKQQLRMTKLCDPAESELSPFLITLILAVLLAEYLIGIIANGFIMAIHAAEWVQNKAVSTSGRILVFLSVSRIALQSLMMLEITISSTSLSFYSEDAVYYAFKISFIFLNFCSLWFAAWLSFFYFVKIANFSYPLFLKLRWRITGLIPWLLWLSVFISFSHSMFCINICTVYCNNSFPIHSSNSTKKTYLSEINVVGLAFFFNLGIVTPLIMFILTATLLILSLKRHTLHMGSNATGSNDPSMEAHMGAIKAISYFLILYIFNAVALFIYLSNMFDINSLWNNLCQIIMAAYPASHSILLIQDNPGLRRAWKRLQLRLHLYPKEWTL
Put plainly: Inhibition of human TAS2R39 expressed in HEK293 cells coexpressing G-protein at 10 mM assessed as reduction in epicatechin gallate-induced intracellular calcium release by Fluo-4-AM dye based fluorescence assay relative to control. It is filed as functional, cell-based. Background: Calcium flux is commonly read through the fluorescence of an indicator in the cells.
Consider `O=C(O)c1cc(O)c(O)c(O)c1`, for which the inhibition stood at 25%.

Take `O=C(O)/C=C/c1ccc(O)c(O)c1`: the inhibition turned out to be 30%. The same measure for `O=C(O)c1ccc(O)cc1`: 25%; for `COc1cc(C(=O)O)cc(OC)c1OC`: 20%. The same measure for `O=C(O)CCCc1ccccc1`: 40%; for `COc1cc(/C=C/C(=O)O)ccc1O`: 65%; for `COc1cc(/C=C/C(=O)O)cc(OC)c1`: 20%. The figure for `O=C(O)Cc1ccccc1` is 5%; for `COc1ccc(C(=O)O)cc1` it is 15%; for `COc1cc(/C=C/C(=O)O)cc(OC)c1O` it is 65%. In the case of `COc1cc(CCC(=O)O)cc(OC)c1OC`, the inhibition was found to be 35%. The same measure for `COc1ccccc1/C=C/C(=O)O`: 0%. The figure for `O=C(O)/C=C/c1ccc(O)cc1` is 40%. The figure for `COc1ccc(C(=O)O)cc1OC` is 10%; for `COc1cc(/C=C/C(=O)O)cc(OC)c1OC` it is 70%. On to `O=C(O)/C=C/c1ccccc1`, for which the inhibition came out at 40%. Consider `O=C(O)c1ccc(O)c(O)c1`, for which the inhibition was determined as 15%. The figure for `COc1cccc(C(=O)O)c1O` is 25%. In the case of `O=C(O)CCc1ccccc1`, the inhibition was found to be 15%. The same measure for `COc1ccc(CC(=O)O)cc1`: 15%. The figure for `N[C@@H](Cc1ccccc1)C(=O)O` is 0%; for `COc1cc(CCC(=O)O)ccc1O` it is 35%; for `COc1cccc(/C=C/C(=O)O)c1` it is 0%. The figure for `COc1ccc(/C=C/C(=O)O)c(OC)c1` is 40%. Take `O=C(O)c1ccccc1`: the inhibition is 20%. The figure for `COc1cc(CC(=O)O)cc(OC)c1OC` is 25%.

As to `COc1ccc(CCC(=O)O)cc1OC`, the inhibition is 35%. The figure for `COc1ccccc1C(=O)O` is 10%; for `COc1ccc(/C=C/C(=O)O)cc1` it is 30%.

For the molecule `COc1cccc(C(=O)O)c1`, the inhibition stood at 5%.

As for `O=C(O)Cc1ccc(O)cc1`, the inhibition turned out to be 20%. The figure for `O=C(O)CCc1ccc(O)c(O)c1` is 30%; for `COc1ccc(CCC(=O)O)cc1` it is 40%. The same measure for `O=C(O)Cc1ccc(O)c(O)c1`: 15%. The same measure for `O=C(O)CCc1ccc(O)cc1`: 25%.
